Data reported in the NIST ThermoML archive (doi:10.1016/j.jct.2008.09.021).
± gives the expanded uncertainty stated by the source.

How the values were obtained:
[1] = refractive index (Na D-line) (dimensionless); conditions: 298.15 K; 101.33 kPa; Liquid; Standard Abbe refractometry
[2] = Liquid; for mass density: 303.15 K, 101.33 kPa, Pycnometric method; for vapor or sublimation pressure: Ebulliometric method (Recirculating still)

| refractive index [1] | mass density [2] [kg/m3] | vapor or sublimation pressure ([2]; 371.05 K) [kPa] | vapor or sublimation pressure ([2]; 473.25 K) [kPa] | vapor or sublimation pressure ([2]; 401.85 K) [kPa] | vapor or sublimation pressure ([2]; 379.35 K) [kPa] | vapor or sublimation pressure ([2]; 353.95 K) [kPa] | vapor or sublimation pressure ([2]; 353.85 K) [kPa] | SMILES |
| --- | --- | --- | --- | --- | --- | --- | --- | --- |
| 1.3954 ± 0.0013 | 798.92 ± 4.7 | 95.3 ± 2 | – | – | – | – | – | CCC(C)O (stereo not drawn) [butan-2-ol] |
| 1.4674 ± 0.0008 | 1023.4 ± 0.61 | – | 95.3 ± 1.9 | – | – | – | – | CN1CCCC1=O [N-methylpyrrolidone] |
| 1.4053 ± 0.0013 | 801.76 ± 4.7 | – | – | 95.3 ± 2 | – | – | – | CC(C)CCO [3-methylbutan-1-ol] |
| 1.3939 ± 0.0013 | 794.34 ± 4.6 | – | – | – | 95.3 ± 2 | – | – | CC(C)CO [2-methyl-1-propanol] |
| 1.3851 ± 0.0013 | 776.16 ± 4.4 | – | – | – | – | 95.3 ± 2 | – | CC(C)(C)O [2-methylpropan-2-ol] |
| 1.375 ± 0.0013 | 776.88 ± 4.4 | – | – | – | – | – | 95.3 ± 2 | CC(C)O [propan-2-ol] |
